As a reminder, the IC50 is the concentration that gives 50% inhibition. Read a high IC50 as weaker potency in that assay. As a reminder, the inhibition is the drop in the measured response relative to a control, in per cent. In general, half-life refers to the time needed for the level to fall by half in the phase considered. The low end stands for fast loss, the high end for slow loss. Usually AUC stands for concentration integrated over time.

Here are results for three compounds from EP4796530A1 (Biocells (Beijing) Biotech Co., Ltd., priority 2023, dated 2025).

Each structure is given as a SMILES string.

The target of data set [1] is T1, NLRP3 (Mus musculus, UniProt Q8R4B8). As to the kind of experiment: Inhibition curves (IC50) of canonical NLRP3 activation in J774A.1 cells, IL-1β release. Type of data set: cell-based. Also noted: The mouse macrophage cell line J774A.1 was used, and LPS was used as the first signal; host or cells: J774A.1 mouse monocyte-macrophage cell line. The note with it: J774A.1 cell LPS+ATP activation model. As for the experimental part:
J774A.1 cells were plated in a 48-well plate at a density of 1.0×10^6 cells/mL, with 300 µL per well. Subsequently, NLRP3 was activated by LPS+ATP or LPS+Nig. […] ATP was purchased from Sigma, Cat. No.: L2654. Nig was purchased from Shanghai Yuanye Bio-Technology Co., Ltd., Cat. No.: S45490.
Experimental groups: a negative control group, an LPS-alone incubation control group, an LPS+ATP/Nig positive control group, and an example compound experimental group with different concentrations.
After the plated J774A.1 cells adhering to the plate, the culture medium was replaced. For all the groups except the negative control group, the culture medium was completely replaced with cell culture medium containing 1 µg/mL LPS. The negative control group received cell culture medium. Then, all the groups were incubated overnight. 18 h later, the culture medium was replaced again. The culture medium of the example compound experimental group was completely replaced with culture medium containing different concentrations of compounds; while the negative control group, the LPS-alone incubation control group, and the LPS+ATP/Nig positive control group received cell culture medium. 1 h later, the culture mediums of the LPS+ATP/Nig positive control group and the example compound experimental group with different concentrations were completely replaced with cell culture medium containing 5 mM ATP or 10 µM Nig. 1 h later, the cell supernatants were collected for IL-1β detection.
Therefore, the relative change in the amount of IL-1β release may directly reflect NLRP3 inhibitory effect. The inhibitory effect of the compounds varies with different concentrations, and based on this, an inhibition curve can be constructed, and the inhibitory effects of the compounds were assessed by IC50.

Data set [2] has as its target T2, hERG potassium channel (Homo sapiens, UniProt Q12809).
T2 construct: host or cells: HEK-293 stably expressing hERG
As to the kind of experiment: hERG inhibition, automated patch clamp (QPatch 48X) in HEK-293 cells stably expressing hERG. Type of data set: cell-based. To be noted: HEK-293 cells stably expressing hERG potassium channel, read-out: hERG inhibition rate; for inhibition at 1 µM: pH 7.4, 1 µM; for inhibition at 10 µM: pH 7.4, 10 µM. As for the experimental part: The culture temperature was 37 °C, and the carbon dioxide concentration was 5%.
Cell passage: The old medium was removed, and the cells were washed once with PBS. […] Once the cells were detached from the bottom of the dish, approximately 5 mL of complete medium pre-warmed at 37 °C was added. The cell suspension was gently triturated with a pipette to dissociate aggregated cells. The cell suspension was transferred to a sterile centrifuge tube and centrifuged at 1000 rpm for 5 min to collect the cells. For expansion or maintenance, the cells were seeded into 10 cm cell culture dishes at a density of 6×10^5 cells per cell culture dish (final volume: 5 mL).
Medium was added to terminate digestion, followed by centrifugation. The cells were then resuspended and counted. The cell density was adjusted to 2-3×10^6 cells/mL. Subsequently, the cells were gently mixed for 15-20 min on a balance shaker at room temperature, and then loaded for detection.
In this study, the automated patch clamp QPatch 48X (Sophion) system was used for electrophysiological detection.
First, the prepared cells were placed on the centrifuge of the Qpatch workstation. The cells were washed with multiple centrifugation/suspension cycles, and the cell culture medium was replaced with extracellular fluid. One MTP-96 plate was retrieved and placed at the MTP source position. The QPlate chip was retrieved and placed at the QPlate source position. The robotic arm scanned the barcodes of MTP-96 plate and QPlate chip, and transferred them to the measurement station. The intracellular fluid and extracellular fluid were aspirated from the reservoir and added to the intracellular fluid pool and the pool of cell and compound of the QPlate chip, respectively. At the measurement station, all measurement sites on the QPlate experienced initial quality control. The quality control process involved aspirating the cell suspension from the cell container of the centrifuge, positioning the cells onto the chip wells via a pressure controller, and establishing high-resistance seal to form a whole-cell recording mode. Once a stable control current baseline was obtained, the test substances can be sequentially aspirated from the test substance MTP-96 plate in order of concentration and applied to the cells.
The voltage stimulation protocol for whole-cell patch-clamp recording of hERG current was as follows: after the whole-cell seal was formed, the cell membrane voltage was clamped at -80 mV. The clamped voltage was depolarized from -80 mV to -50 mV and maintained for 0.5 s (as leak current detection), then stepped to 30 mV and maintained for 2.5 s, and then rapidly returned to -50 mV and maintained for 4 s, whereby tail current of the hERG channel can be elicited. Data was collected repeatedly every 10 s to observe the effect of the drug on hERG tail current. Experimental data was collected by the QPatch screening workstation and stored in the database server.
For each drug concentration, a two-dose regimen was set for a duration of at least 5 min. For each cell, the current detected in the compound-free extracellular fluid served as self-controls, and two cells were detected in independent replicates. All electrophysiological experiments were conducted at room temperature.
The second of the two dosages was used for data analysis. For each drug concentration, the average of the last three data points prior to the next drug concentration was taken to represent the current value for the drug concentration. The current value representing each drug concentration was normalized against the reference current value used as a blank control, and then the inhibition rate corresponding to each drug concentration was calculated.

Data set [3] in a line: Rat plasma pharmacokinetics after intravenous administration (LC-MS). The note with it: SD rats, intravenous 2.5 mg/kg; for AUC: read-out: AUC from 1 to 1440 min. Type of data set: in vivo. As for the experimental part: SD rats were administered intravenously, at a dosage concentration of 2.5 mg/kg in each group. Blood was collected at the time points of 1 min, 30 min, 1 h, 2 h, 4 h, 6 h, and 24 h. The collected blood was centrifuged at 3000 rpm for 10 min at 4 °C to obtain plasma. Acetonitrile was added at a 1:3 volume ratio of plasma: acetonitrile to precipitate proteins. After centrifugation, the supernatant was collected and filtered. The concentration of the compound was detected using LC-MS (Agilent 1260-G6125, SIM mode).
Experimental groups: a vehicle control group, and a dosing group.

Data set [4] has as its target T1, NLRP3. As to the kind of experiment: MSU-induced mouse peritonitis model: IL-1β in ascites. Type of data set: in vivo, C57BL/6J female mice. Details: tissue National Institutes for Food and Drug Control; host or cells: C57BL/6J mice in vivo (serum IL-1β in A7, ascites IL-1β in A8). The note with it: oral gavage; LPS 2 h later, MSU after another 2 h, ascites 30 min later.
Method: Intraperitoneal injection of LPS and monosodium urate crystals (MSU) in mice can induce the activation of NLRP3 and release of large amounts of IL-1β. […] LPS was purchased from Sigma, Cat. No. L2654. MSU was purchased from Bide Pharmatech Co., Ltd., Cat. No. BD367417. C57BL/6J female mice aged 8 weeks were purchased from National Institutes for Food and Drug Control.
The mice were administered the example compounds via oral gavage. […] Ascites was collected 30 min later, and then IL-1β protein detection was performed on the ascites.
Experimental groups: a model group, and an example compound dosing group.

Data set [5] concerns the target NLRP3 (Homo sapiens, UniProt Q96P20). In words: Inhibition curves (IC50) of canonical NLRP3 activation in healthy human whole blood, IL-1β release. Type of data set: cell-based. The note with it: LPS+5 µM Nig canonical activation model.
Method: 10 mL of human whole blood was collected intravenously aseptically, and plated into a 96-well plate, with 198 µL per well. Then, 2 µL of 100× gradient dilutions of the example compounds at specified concentrations were added, immediately followed by the addition of 10 µL of 21 µg/mL LPS gradient dilution. 3 h later, nigericin with a working concentration of 5 µM or 1 mM ATP was added. After stimulation for 1 h, the whole blood was collected and centrifuged to collect the supernatant. IL-1β in the sample supernatant was detected by ELISA method.
Experimental groups: a negative control group, an LPS-alone incubation control group, an LPS+Nig/ATP positive control group, and a 1 µM example compound experimental group.
10 mL of human whole blood was collected intravenously aseptically. The anticoagulant heparin sodium was added preemptively into a 50 mL centrifuge tube. The collected whole blood was directly plated in a 96-well plate, with 198 µL per well. […] IL-1β in the sample supernatant was detected by ELISA method.
Therefore, the relative change in the amount of IL-1β release may directly reflect NLRP3 inhibitory effect. The inhibitory effect of the compounds varies with different concentrations, and based on this, an inhibition curve can be constructed, and the inhibitory effect of the compounds were assessed by IC50.

T2 sequence (Q12809 whole entry): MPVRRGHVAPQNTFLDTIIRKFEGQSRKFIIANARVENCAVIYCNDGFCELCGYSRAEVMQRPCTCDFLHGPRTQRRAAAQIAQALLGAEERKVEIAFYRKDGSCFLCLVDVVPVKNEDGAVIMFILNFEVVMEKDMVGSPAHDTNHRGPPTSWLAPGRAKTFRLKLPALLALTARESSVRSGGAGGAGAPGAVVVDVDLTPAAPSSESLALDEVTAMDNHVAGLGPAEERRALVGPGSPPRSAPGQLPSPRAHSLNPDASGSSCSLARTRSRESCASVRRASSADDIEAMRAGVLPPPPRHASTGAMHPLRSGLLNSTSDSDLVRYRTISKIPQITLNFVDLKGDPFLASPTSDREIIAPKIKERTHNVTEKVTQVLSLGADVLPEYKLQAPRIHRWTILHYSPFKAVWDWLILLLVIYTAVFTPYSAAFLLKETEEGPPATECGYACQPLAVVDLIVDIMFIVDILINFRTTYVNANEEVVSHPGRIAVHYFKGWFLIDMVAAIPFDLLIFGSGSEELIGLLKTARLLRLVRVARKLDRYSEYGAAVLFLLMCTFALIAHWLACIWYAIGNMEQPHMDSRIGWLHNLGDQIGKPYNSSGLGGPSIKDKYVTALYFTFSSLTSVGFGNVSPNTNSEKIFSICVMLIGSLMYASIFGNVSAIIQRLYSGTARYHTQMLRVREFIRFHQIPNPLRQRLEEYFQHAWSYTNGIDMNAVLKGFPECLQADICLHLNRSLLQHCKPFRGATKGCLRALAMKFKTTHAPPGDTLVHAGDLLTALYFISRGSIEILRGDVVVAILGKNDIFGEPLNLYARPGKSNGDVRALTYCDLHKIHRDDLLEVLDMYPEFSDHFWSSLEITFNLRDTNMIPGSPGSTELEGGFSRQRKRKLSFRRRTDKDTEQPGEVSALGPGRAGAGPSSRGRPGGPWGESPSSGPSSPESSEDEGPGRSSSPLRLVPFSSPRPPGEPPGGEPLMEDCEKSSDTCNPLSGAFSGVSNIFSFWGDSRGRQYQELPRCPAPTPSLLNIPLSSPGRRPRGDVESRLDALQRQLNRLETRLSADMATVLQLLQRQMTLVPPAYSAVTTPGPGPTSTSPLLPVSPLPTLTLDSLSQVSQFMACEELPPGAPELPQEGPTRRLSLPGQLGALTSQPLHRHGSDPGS
T1 sequence (Q8R4B8 whole entry): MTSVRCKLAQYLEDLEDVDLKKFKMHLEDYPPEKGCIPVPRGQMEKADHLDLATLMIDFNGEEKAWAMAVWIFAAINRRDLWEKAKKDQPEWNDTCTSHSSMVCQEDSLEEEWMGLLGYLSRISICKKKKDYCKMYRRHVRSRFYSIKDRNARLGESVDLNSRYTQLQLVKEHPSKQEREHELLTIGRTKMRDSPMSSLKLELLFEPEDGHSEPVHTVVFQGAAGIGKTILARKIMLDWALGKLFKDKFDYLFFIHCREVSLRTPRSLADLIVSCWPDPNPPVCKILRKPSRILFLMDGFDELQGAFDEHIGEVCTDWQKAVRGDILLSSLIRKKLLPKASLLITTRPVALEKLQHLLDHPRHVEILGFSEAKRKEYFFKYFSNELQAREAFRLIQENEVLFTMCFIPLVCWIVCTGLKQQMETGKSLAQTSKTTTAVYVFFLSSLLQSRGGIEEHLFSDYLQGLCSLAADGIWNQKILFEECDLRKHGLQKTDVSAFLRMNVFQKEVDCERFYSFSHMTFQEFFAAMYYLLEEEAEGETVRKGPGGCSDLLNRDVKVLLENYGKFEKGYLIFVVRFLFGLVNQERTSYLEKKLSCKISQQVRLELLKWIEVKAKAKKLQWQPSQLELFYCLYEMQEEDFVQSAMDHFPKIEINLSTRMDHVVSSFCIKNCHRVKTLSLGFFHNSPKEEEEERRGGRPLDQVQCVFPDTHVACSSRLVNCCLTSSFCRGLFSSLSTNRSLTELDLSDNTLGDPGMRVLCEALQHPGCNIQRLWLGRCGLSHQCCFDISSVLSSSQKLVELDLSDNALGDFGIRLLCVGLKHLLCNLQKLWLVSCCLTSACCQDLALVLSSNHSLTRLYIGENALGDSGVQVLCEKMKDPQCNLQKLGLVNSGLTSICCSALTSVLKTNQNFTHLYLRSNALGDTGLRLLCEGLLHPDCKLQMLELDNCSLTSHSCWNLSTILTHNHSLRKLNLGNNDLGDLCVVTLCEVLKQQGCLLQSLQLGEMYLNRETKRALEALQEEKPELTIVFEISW
Sequence of NLRP3 (Homo sapiens, UniProt Q96P20) (Q96P20 whole entry): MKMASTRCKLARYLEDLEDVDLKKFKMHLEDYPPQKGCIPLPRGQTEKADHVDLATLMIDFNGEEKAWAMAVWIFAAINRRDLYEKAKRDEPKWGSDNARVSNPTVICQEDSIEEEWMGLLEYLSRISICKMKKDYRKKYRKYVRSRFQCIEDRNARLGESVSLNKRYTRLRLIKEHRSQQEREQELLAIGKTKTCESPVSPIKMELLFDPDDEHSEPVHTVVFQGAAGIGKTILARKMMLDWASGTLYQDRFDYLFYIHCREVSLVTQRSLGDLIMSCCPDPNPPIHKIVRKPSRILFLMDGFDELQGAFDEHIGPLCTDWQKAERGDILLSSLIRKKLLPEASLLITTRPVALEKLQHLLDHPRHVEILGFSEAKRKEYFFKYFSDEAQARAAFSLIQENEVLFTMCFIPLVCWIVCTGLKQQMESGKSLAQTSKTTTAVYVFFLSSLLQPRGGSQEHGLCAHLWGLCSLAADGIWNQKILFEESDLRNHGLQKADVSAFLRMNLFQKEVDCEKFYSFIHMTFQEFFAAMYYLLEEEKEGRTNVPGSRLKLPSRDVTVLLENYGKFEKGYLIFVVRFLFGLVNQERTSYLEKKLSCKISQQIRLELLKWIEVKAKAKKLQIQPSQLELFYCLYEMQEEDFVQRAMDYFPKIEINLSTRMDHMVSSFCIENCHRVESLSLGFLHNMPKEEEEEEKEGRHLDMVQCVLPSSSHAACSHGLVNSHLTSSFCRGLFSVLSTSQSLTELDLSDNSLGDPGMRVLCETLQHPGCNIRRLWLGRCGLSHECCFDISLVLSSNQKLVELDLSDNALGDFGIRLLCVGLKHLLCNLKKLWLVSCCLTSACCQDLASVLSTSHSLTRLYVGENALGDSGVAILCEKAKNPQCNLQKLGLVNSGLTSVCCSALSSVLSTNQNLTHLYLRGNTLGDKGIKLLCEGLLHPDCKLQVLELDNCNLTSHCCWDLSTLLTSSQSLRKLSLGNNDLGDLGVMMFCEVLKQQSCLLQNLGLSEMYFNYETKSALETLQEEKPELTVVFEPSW

In data set [1], `CN(C)Cc1cccc(S(=O)(=O)NC(=O)Nc2c3c(cc4c2CCC4)CCC3)c1N` [Example 19, 2-amino-3-((dimethylamino)methyl)-N-((1,2,3,5,6,7-hexahydro-s-indacen-4-yl)carbamoyl)benzenesulfonamide] yielded an IC50 of 114 nM. In data set [2], the inhibition at 1 µM amounted to 0.3% and the inhibition at 10 µM was found to be 2.96%. Moreover, in data set [3], the half-life is 3.85 h and the exposure (AUC) was 56500 ng·h/mL. In data set [4], the “level of IL-1β in ascites compared with the model group” value is “significantly inhibited”. Further, the IC50 in data set [5] came out at 1270 nM.

For the compound `COc1ccc(S(=O)(=O)NC(=O)Nc2c3c(cc4c2CCC4)CCC3)cc1CN(C)C` [Example 3, 3-((dimethylamino)methyl)-N-((1,2,3,5,6,7-hexahydro-s-indacen-4-yl)carbamoyl)-4-methoxybenzenesulfonamide], in data set [1], the IC50 was determined as 203 nM. For the same compound, in data set [2], the inhibition at 1 µM turned out to be 0.45% and the inhibition at 10 µM came out at 1.56%.

In data set [1], `CN(C)Cc1cc(S(=O)(=O)NC(=O)Nc2c3c(cc4c2CCC4)CCC3)ccc1O` [Example 5, 3-((dimethylamino)methyl)-N-((1,2,3,5,6,7-hexahydro-s-indacen-4-yl)carbamoyl)-4-hydroxybenzenesulfonamide] registered a half-maximal inhibitory concentration (IC50) of 224 nM. In addition, in data set [2], the inhibition at 1 µM worked out at 0.28% and the inhibition at 10 µM is -0.61%. Besides, in data set [3], the half-life worked out at 1.93 h and the AUC turned out to be 33900 ng·h/mL.
